From article PMC8219945 (Bioorganic Chemistry, 2021)

Each compound was assayed on SARS-CoV-2 (assay: Antiviral IC50 determination). Settings: not given.
Format: cell-based, SARS-CoV-2 (hCoV-19/Egypt/NRC-03/2020)
CCN(CCO)CCCC(C)Nc1ccnc2cc(Cl)ccc12 (centres unmarked) [HCQ, hydroxychloroquine, reference compound] was tested, and the “SI (selectivity index/therapeutical index): CC50/IC50” value was 10.85.

Same assay, conditions: CC50 VERO-E6 / IC50 SARS-CoV-2
In the case of Fc1ccc(-n2cc(COc3cc(C(F)(F)F)nc4ccccc34)nn2)cc1 [Compound 10a, 4-((1-(4-Fluorophenyl)-1H-1,2,3-triazol-4-yl)methoxy)-2-(trifluoromethyl)quinoline], the “SI (selectivity index/therapeutical index): CC50/IC50” value is reported as 5.04.
Cc1ccc(-n2cc(COc3cc(C(F)(F)F)nc4ccccc34)nn2)cc1 [Compound 10b, 4-((1-(p-Tolyl)-1H-1,2,3-triazol-4-yl)methoxy)-2-(trifluoromethyl)quinoline] was tested, and the “SI (selectivity index/therapeutical index): CC50/IC50” value was 0.49.
For COc1ccc(-n2cc(COc3cc(C(F)(F)F)nc4ccccc34)nn2)cc1 [Compound 10c, 4-((1-(4-Methoxyphenyl)-1H-1,2,3-triazol-4-yl)methoxy)-2-(trifluoromethyl)quinoline], the “SI (selectivity index/therapeutical index): CC50/IC50” value was 0.03.
For FC(F)(F)c1cc(OCc2cn(-c3ccccc3Cl)nn2)c2ccccc2n1 [Compound 10d, 4-((1-(2-Chlorophenyl)-1H-1,2,3-triazol-4-yl)methoxy)-2-(trifluoromethyl)quinoline], the “SI (selectivity index/therapeutical index): CC50/IC50” value was 2.85.
In the case of COc1ccccc1-n1cc(COc2cc(C(F)(F)F)nc3ccccc23)nn1 [Compound 10e, 4-((1-(2-Methoxyphenyl)-1H-1,2,3-triazol-4-yl)methoxy)-2-(trifluoromethyl)quinoline], the “SI (selectivity index/therapeutical index): CC50/IC50” value is reported as 0.03.
With Cc1ccc(-n2cc(COc3cc(C(F)(F)F)nc4ccc(F)cc34)nn2)cc1 [Compound 10f, 6-Fluoro-4-((1-(p-tolyl)-1H-1,2,3-triazol-4-yl)methoxy)-2-(trifluoromethyl)quinoline] the “SI (selectivity index/therapeutical index): CC50/IC50” value was 1.71.
Fc1ccc2nc(C(F)(F)F)cc(OCc3cn(-c4ccccc4Cl)nn3)c2c1 [Compound 10g, 4-((1-(2-Chlorophenyl)-1H-1,2,3-triazol-4-yl)methoxy)-6-fluoro-2-(trifluoromethyl)quinoline] was tested, and the “SI (selectivity index/therapeutical index): CC50/IC50” value was 26.42.
For COc1ccccc1-n1cc(COc2cc(C(F)(F)F)nc3ccc(F)cc23)nn1 [Compound 10h, 6-Fluoro-4-((1-(2-methoxyphenyl)-1H-1,2,3-triazol-4-yl)methoxy)-2-(trifluoromethyl)quinoline], the “SI (selectivity index/therapeutical index): CC50/IC50” value was 0.76.
Cc1ccc2nc(C(F)(F)F)cc(OCc3cn(-c4ccccc4Cl)nn3)c2c1 [Compound 10i, 4-((1-(2-Chlorophenyl)-1H-1,2,3-triazol-4-yl)methoxy)-6-methyl-2-(trifluoromethyl)quinoline] was tested, and the “SI (selectivity index/therapeutical index): CC50/IC50” value was 4.51.
With COc1ccc2nc(C(F)(F)F)cc(OCc3cn(-c4ccc(F)cc4)nn3)c2c1 [Compound 10k, 4-((1-(4-Fluorophenyl)-1H-1,2,3-triazol-4-yl)methoxy)-6-methoxy-2-(trifluoromethyl)quinoline] the “SI (selectivity index/therapeutical index): CC50/IC50” value was 1.34.
For COc1ccc2nc(C(F)(F)F)cc(OCc3cn(-c4ccc(C)cc4)nn3)c2c1 [Compound 10l, 6-Methoxy-4-((1-(p-tolyl)-1H-1,2,3-triazol-4-yl)methoxy)-2-(trifluoromethyl)quinoline], the “SI (selectivity index/therapeutical index): CC50/IC50” value was 0.65.
COc1ccc(-n2cc(Cn3c(C(F)(F)F)cc(=O)c4ccccc43)nn2)cc1 [Compound 11a, 1-((1-(4-Methoxyphenyl)-1H-1,2,3-triazol-4-yl)methyl)-2-(trifluoromethyl)quinolin-4(1H)-one] was tested, and the “SI (selectivity index/therapeutical index): CC50/IC50” value was 3.69.
With COc1ccccc1-n1cc(Cn2c(C(F)(F)F)cc(=O)c3cc(C)ccc32)nn1 [Compound 11c, 1-((1-(2-Methoxyphenyl)-1H-1,2,3-triazol-4-yl)methyl)-6-methyl-2-(trifluoromethyl)quinolin-4(1H)-one] the “SI (selectivity index/therapeutical index): CC50/IC50” value was 3.15.
